Measurements: patent publication US8835377B2, “Oral delivery of peptide pharmaceutical compositions” (UGP Therapeutics, Inc., priority 2004, dated 2014)

Assay: Pharmacokinetics after oral capsules (sCT plus Dmt-DALDA with citric acid and lauroyl carnitine), non-enteric coated or enteric coated, in fasted beagle dogs (plasma; ELISA for sCT, HPLC-MS for Dmt-DALDA)
Format: in vivo
Settings: for AUC / Cmax: normalized to a 1 mg dose; for Tmax / Cmax: beagle, dog, plasma, oral; for plasma peptide concentration normalized to a 1 mg dose: enteric coated capsule
Description: A second series of tests was carried out, as noted above, using beagle dogs. […] In the experiments represented in FIGS. 2A and 2B, size 00 […] capsules were each filled with 758 mg of a powdered blend consisting of citric acid (643 mg), lauroyl carnitine (66 mg), talc (33 mg), salmon calcitonin (sCT) (13 mg) and Dmt-DALDA (2.4 mg). Half of the capsules were coated with an enteric coating solution of L30D-55, while the remaining 50% of the capsules were not coated. Four fasted dogs were each given 1 uncoated capsule, and 2 weeks later they were each given an enteric coated capsule. After administration of each capsule, samples of blood were taken at 15 minute intervals from an indwelling catheter for up to 4 hours. The blood samples were centrifuged and the resulting plasma supernatants were stored frozen at −20° C. The plasma samples were subsequently analyzed for sCT by a direct ELISA, and for Dmt-DALDA by HPLC-mass spectrometry performed as set forth in Wan, H. and Desiderio, D., Quantitation of [DMT^1] DALDA in ovine plasma by on-line liquid chromatography/quadrapole time-of-flight mass spectrometry, Rapid Communications in Mass Spectrometry, 2003; 17, 538-546, the contents of which are incorporated herein by reference.
The results summarized in FIGS. 2A and 2B as plasma peptide concentration normalized to a 1 mg dose as a function of time relative to the average Tmax, (i.e., the time at which the maximum amount of peptide was detected) indicate that both peptides, i.e., sCT and Dmt-DALDA, were detected in dogs given uncoated or enteric coated capsules. […] Table DI (below) sets forth the values upon which the curves in FIGS. 2A and 2B are based. The results are summarized in the tables as plasma peptide concentration normalized to a 1 mg dose as a function of time. Table III, moreover, provides the standard deviations for the data obtained regarding each of the test dogs, which standard deviations are also indicated in FIGS. 2A and 2B.
Table IV (below) summarizes the pharmacokinetic parameters in dogs of orally administered sCT and Dmt-DALDA when administered in non-enteric coated versus enteric coated capsules. Peptide was not detected from 1 dog in each group due to (a) Dog 3 vomiting the uncoated capsule and (b) delayed gastric emptying in Dog 2 provided with an enteric coated capsule. Cmax and AUC are as defined with regard to Table H above.

[1] = Non-Enteric Capsule, Avg (n = 3)

CC(C)C[C@H](NC(=O)[C@H](CCCCN)NC(=O)CNC(=O)[C@H](CC(C)C)NC(=O)[C@@H](NC(=O)[C@@H]1CSSC[C@H](N)C(=O)N[C@@H](CO)C(=O)N[C@@H](CC(N)=O)C(=O)N[C@@H](CC(C)C)C(=O)N[C@@H](CO)C(=O)N[C@@H]([C@@H](C)O)C(=O)N1)C(C)C)C(=O)N[C@@H](CO)C(=O)N[C@@H](CCC(N)=O)C(=O)N[C@@H](CCC(=O)O)C(=O)N[C@@H](CC(C)C)C(=O)N[C@@H](Cc1c[nH]cn1)C(=O)N[C@@H](CCCCN)C(=O)N[C@@H](CC(C)C)C(=O)N[C@@H](CCC(N)=O)C(=O)N[C@H](C(=O)N[C@@H](Cc1ccc(O)cc1)C(=O)N1CCC[C@H]1C(=O)N[C@@H](CCCNC(=N)N)C(=O)N[C@H](C(=O)N[C@@H](CC(N)=O)C(=O)N[C@H](C(=O)NCC(=O)N[C@@H](CO)C(=O)NCC(=O)N[C@H](C(=O)N1CCC[C@H]1C(N)=O)[C@@H](C)O)[C@@H](C)O)[C@@H](C)O)[C@@H](C)O [sCT, salmon calcitonin]
AUC (Enteric Capsule, Avg (n = 3)): 788317 pg/mL-min | AUC (Enteric Capsule, Dog 1): 1178504 pg/mL-min | AUC (Enteric Capsule, Dog 2 (delayed gastric emptying)): 0 pg/mL-min | AUC (Enteric Capsule, Dog 3): 522432 pg/mL-min | AUC (Enteric Capsule, Dog 4): 664016 pg/mL-min | AUC [1]: 69539 pg/mL-min | AUC (Non-Enteric Capsule, Dog 1): 79620 pg/mL-min | AUC (Non-Enteric Capsule, Dog 2): 103772 pg/mL-min | AUC (Non-Enteric Capsule, Dog 3 (vomited capsule)): 0 pg/mL-min | AUC (Non-Enteric Capsule, Dog 4): 25227 pg/mL-min | Tmax (Enteric Capsule, Avg (n = 3)): 105 min | Cmax (Enteric Capsule, Avg (n = 3)): 17.2 ng/mL | Cmax (Enteric Capsule, Dog 1): 25.1 ng/mL | Tmax (Enteric Capsule, Dog 3): 135 min | Cmax (Enteric Capsule, Dog 3): 13.2 ng/mL | Tmax (Enteric Capsule, Dog 4): 120 min | Cmax (Enteric Capsule, Dog 4): 13.1 ng/mL | Tmax [1]: 30 min | Cmax [1]: 2.26 ng/mL | Tmax (Non-Enteric Capsule, Dog 1): 30 min | Cmax (Non-Enteric Capsule, Dog 1): 2.65 ng/mL | Tmax (Non-Enteric Capsule, Dog 2): 30 min | Cmax (Non-Enteric Capsule, Dog 2): 3.15 ng/mL | Tmax (Non-Enteric Capsule, Dog 4): 30 min | Cmax (Non-Enteric Capsule, Dog 4): 0.971 ng/mL | Cmax and AUC, enteric coated capsules versus non enteric-coated capsules (dogs): significantly enhanced | amount of peptide detected in plasma, enteric coated capsules vs non-coated capsules (dogs): nearly eight times as much | time at which the maximum concentration was seen (dogs given coated capsules): 105 min | time at which the maximum concentration was seen (dogs given uncoated capsules): 30 min | plasma peptide concentration normalized to a 1 mg dose (Dog 1, 0 min): 0 pg/mL | plasma peptide concentration normalized to a 1 mg dose (Dog 1, 15 min): 0 pg/mL | plasma peptide concentration normalized to a 1 mg dose (Dog 1, 30 min): 407 pg/mL | plasma peptide concentration normalized to a 1 mg dose (Dog 1, 45 min): 22650 pg/mL | plasma peptide concentration normalized to a 1 mg dose (Dog 1, 60 min): 25136 pg/mL | plasma peptide concentration normalized to a 1 mg dose (Dog 1, 75 min): 6444 pg/mL | plasma peptide concentration normalized to a 1 mg dose (Dog 1, 90 min): 8167 pg/mL | plasma peptide concentration normalized to a 1 mg dose (Dog 1, 105 min): 4344 pg/mL | plasma peptide concentration normalized to a 1 mg dose (Dog 1, 120 min): 3193 pg/mL | plasma peptide concentration normalized to a 1 mg dose (Dog 1, 135 min): 2710 pg/mL | plasma peptide concentration normalized to a 1 mg dose (Dog 1, 150 min): 1706 pg/mL | plasma peptide concentration normalized to a 1 mg dose (Dog 1, 165 min): 1283 pg/mL | plasma peptide concentration normalized to a 1 mg dose (Dog 1, 180 min): 1301 pg/mL | plasma peptide concentration normalized to a 1 mg dose (Dog 1, 195 min): 459 pg/mL | plasma peptide concentration normalized to a 1 mg dose (Dog 1, 210 min): 347 pg/mL | plasma peptide concentration normalized to a 1 mg dose (Dog 2 (delayed gastric emptying), 0 min): 0 pg/mL | plasma peptide concentration normalized to a 1 mg dose (Dog 2 (delayed gastric emptying), 15 min): 0 pg/mL | plasma peptide concentration normalized to a 1 mg dose (Dog 2 (delayed gastric emptying), 30 min): 0 pg/mL | plasma peptide concentration normalized to a 1 mg dose (Dog 2 (delayed gastric emptying), 45 min): 0 pg/mL | plasma peptide concentration normalized to a 1 mg dose (Dog 2 (delayed gastric emptying), 60 min): 0 pg/mL | plasma peptide concentration normalized to a 1 mg dose (Dog 2 (delayed gastric emptying), 75 min): 0 pg/mL | plasma peptide concentration normalized to a 1 mg dose (Dog 2 (delayed gastric emptying), 90 min): 0 pg/mL | plasma peptide concentration normalized to a 1 mg dose (Dog 2 (delayed gastric emptying), 105 min): 0 pg/mL | plasma peptide concentration normalized to a 1 mg dose (Dog 2 (delayed gastric emptying), 120 min): 0 pg/mL | plasma peptide concentration normalized to a 1 mg dose (Dog 2 (delayed gastric emptying), 135 min): 0 pg/mL | plasma peptide concentration normalized to a 1 mg dose (Dog 2 (delayed gastric emptying), 150 min): 0 pg/mL | plasma peptide concentration normalized to a 1 mg dose (Dog 2 (delayed gastric emptying), 165 min): 0 pg/mL | plasma peptide concentration normalized to a 1 mg dose (Dog 2 (delayed gastric emptying), 180 min): 0 pg/mL | plasma peptide concentration normalized to a 1 mg dose (Dog 2 (delayed gastric emptying), 195 min): 0 pg/mL | plasma peptide concentration normalized to a 1 mg dose (Dog 2 (delayed gastric emptying), 210 min): 0 pg/mL | plasma peptide concentration normalized to a 1 mg dose (Dog 3, 0 min): 0 pg/mL | plasma peptide concentration normalized to a 1 mg dose (Dog 3, 15 min): 0 pg/mL | plasma peptide concentration normalized to a 1 mg dose (Dog 3, 30 min): 0 pg/mL | plasma peptide concentration normalized to a 1 mg dose (Dog 3, 45 min): 0 pg/mL | plasma peptide concentration normalized to a 1 mg dose (Dog 3, 60 min): 0 pg/mL
